How the values were obtained:
[1] = target: High affinity nerve growth factor receptor (Homo sapiens) (UniProt P04629); experiment: Inhibition of TRK-A (unknown origin) assessed as remaining activity at 1 uM using fluorescein-poly GAT as substrate in presence of ATP by TR-FRET assay relative to control
[2] = target: NT-3 growth factor receptor (Homo sapiens) (UniProt Q16288); experiment: Inhibition of TRK-C (unknown origin) assessed as remaining activity at 1 uM using fluorescein-poly GAT as substrate in presence of ATP by TR-FRET assay relative to control
Sequence of NT-3 growth factor receptor (Homo sapiens) (Q16288 32-839 limits assumed): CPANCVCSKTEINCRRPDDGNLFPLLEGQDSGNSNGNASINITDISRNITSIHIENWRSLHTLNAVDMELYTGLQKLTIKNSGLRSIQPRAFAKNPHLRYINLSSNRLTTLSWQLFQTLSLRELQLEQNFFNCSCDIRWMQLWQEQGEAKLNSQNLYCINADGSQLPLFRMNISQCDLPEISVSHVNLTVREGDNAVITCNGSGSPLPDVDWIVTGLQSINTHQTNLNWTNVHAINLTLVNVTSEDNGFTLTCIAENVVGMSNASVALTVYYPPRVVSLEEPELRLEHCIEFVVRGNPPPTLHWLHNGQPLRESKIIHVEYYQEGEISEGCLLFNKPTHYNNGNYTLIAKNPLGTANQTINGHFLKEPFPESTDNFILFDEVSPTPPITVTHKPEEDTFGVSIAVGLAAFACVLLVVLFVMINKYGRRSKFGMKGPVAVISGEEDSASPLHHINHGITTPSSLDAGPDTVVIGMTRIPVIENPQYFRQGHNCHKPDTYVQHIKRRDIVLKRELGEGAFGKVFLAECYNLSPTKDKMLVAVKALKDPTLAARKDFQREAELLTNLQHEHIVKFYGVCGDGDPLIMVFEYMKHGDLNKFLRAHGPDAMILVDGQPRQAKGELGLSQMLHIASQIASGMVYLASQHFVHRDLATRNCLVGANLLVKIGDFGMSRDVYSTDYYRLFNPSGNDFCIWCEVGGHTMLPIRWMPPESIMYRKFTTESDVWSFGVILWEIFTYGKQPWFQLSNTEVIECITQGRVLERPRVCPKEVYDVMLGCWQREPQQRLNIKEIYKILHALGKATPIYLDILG

[3] = target: BDNF/NT-3 growth factors receptor (Homo sapiens) (UniProt Q16620); experiment: Inhibition of TRK-B (unknown origin) assessed as remaining activity at 1 uM using fluorescein-poly GAT as substrate in presence of ATP by TR-FRET assay relative to control
Sequence of BDNF/NT-3 growth factors receptor (Homo sapiens) (Q16620 32-822 limits assumed): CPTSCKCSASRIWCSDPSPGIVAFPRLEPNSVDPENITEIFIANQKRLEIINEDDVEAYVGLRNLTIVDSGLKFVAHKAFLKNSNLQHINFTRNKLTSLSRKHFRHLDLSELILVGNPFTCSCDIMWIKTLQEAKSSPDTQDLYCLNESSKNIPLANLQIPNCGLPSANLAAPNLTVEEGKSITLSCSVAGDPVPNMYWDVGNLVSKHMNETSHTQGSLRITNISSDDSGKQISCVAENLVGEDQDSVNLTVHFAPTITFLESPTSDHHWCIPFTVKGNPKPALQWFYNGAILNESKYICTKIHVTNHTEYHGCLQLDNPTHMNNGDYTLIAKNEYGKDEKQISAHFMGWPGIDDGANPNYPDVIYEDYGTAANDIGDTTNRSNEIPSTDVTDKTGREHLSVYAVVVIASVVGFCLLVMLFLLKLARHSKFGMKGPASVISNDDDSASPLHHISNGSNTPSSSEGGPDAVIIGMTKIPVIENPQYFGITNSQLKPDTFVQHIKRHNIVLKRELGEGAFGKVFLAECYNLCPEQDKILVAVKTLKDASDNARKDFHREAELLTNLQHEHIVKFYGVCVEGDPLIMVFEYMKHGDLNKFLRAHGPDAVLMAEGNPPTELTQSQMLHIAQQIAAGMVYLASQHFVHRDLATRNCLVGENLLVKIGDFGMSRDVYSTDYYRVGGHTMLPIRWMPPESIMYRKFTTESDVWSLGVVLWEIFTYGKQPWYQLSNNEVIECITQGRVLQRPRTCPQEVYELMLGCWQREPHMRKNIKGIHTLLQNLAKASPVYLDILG

[4] = target: T1, Discoidin domain-containing receptor 2 (Homo sapiens) (UniProt Q16832); experiment: Inhibition of DDR2 (unknown origin) assessed as remaining activity at 1 uM using fluorescein-poly GAT as substrate in presence of ATP by TR-FRET assay relative to control
T1 sequence (whole entry): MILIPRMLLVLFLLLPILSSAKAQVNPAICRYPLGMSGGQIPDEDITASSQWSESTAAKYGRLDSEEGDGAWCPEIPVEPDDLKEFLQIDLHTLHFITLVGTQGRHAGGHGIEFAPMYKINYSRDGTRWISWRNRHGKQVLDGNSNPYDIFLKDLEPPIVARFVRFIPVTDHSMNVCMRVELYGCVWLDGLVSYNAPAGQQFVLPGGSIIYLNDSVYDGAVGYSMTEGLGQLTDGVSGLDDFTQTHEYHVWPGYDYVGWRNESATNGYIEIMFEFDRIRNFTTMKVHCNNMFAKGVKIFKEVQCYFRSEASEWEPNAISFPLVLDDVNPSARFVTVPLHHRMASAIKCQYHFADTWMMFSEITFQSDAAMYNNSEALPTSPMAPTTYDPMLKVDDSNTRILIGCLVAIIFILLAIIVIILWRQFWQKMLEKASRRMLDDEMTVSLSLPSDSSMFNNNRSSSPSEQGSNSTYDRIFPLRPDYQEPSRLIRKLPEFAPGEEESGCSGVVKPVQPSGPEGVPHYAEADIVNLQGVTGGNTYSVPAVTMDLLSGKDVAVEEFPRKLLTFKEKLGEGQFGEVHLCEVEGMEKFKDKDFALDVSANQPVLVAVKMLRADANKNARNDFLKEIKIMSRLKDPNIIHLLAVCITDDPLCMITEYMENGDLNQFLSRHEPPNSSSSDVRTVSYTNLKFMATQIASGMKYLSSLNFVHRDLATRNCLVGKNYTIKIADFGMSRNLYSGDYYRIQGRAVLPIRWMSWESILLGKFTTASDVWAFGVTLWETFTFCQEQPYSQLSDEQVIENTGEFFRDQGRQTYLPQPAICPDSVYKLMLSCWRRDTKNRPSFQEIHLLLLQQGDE

[5] = target: T2, Discoidin domain-containing receptor 2 (Homo sapiens, UniProt Q16832); experiment: Inhibition of DDR2 (unknown origin)
T2 sequence (Q16832 whole entry): T1 sequence (whole entry)

[6] = Antiproliferative activity against human SPCA1 cells incubated for 72 hrs by MTT assay; conditions: SPCA1, 72 h
A549 = experiment: Antiproliferative activity against human A549 cells incubated for 72 hrs by MTT assay; conditions: A549, 72 h
NCI-H1975 = experiment: Antiproliferative activity against human NCI-H1975 cells incubated for 72 hrs by MTT assay; conditions: NCI-H1975, 72 h

Sequence of High affinity nerve growth factor receptor (Homo sapiens) (P04629 33-796 limits assumed): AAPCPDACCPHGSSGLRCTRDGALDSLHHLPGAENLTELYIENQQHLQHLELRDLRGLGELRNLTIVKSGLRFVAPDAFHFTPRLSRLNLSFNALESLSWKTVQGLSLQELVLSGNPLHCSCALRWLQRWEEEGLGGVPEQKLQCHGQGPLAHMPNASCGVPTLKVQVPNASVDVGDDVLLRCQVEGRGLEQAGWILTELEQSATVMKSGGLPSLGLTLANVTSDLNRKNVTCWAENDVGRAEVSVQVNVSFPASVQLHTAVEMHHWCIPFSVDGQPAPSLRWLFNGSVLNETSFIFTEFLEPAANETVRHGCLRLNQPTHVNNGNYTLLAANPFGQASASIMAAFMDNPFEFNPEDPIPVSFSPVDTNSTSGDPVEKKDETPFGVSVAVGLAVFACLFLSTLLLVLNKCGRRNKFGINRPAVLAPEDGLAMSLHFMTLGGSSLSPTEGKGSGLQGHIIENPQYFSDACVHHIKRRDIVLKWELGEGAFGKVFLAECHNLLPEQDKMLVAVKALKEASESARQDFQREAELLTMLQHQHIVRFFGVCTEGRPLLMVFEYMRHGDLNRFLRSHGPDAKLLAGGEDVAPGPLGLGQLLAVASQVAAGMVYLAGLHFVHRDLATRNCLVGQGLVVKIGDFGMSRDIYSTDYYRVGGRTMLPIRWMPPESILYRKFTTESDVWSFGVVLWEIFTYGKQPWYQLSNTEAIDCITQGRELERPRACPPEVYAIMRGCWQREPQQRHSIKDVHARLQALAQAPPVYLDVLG

Row | Activity [1] | Activity [2] | Activity [3] | Activity [4] | IC50 [5] | IC50 (A549) | IC50 (NCI-H1975) | Structure (SMILES) | IC50 [6]
1 | 93.1% | 68.8% | 88.9% | 66.5% | – | – | – | COc1ccc2c(c1)c(CNC(=O)Nc1ccc(F)cc1F)cn2CC(=O)N1CCN(C)CC1 | –
2 | 74.8% | 68.9% | 87.4% | 64.3% | – | – | – | COc1ccc2c(c1)c(CNC(=O)Nc1ccccc1Cl)cn2CC(=O)N1CCCCC1 | –
3 | 75.2% | 77.5% | 87.9% | 84.8% | – | – | – | COc1ccc2c(c1)c(CNC(=O)Nc1ccc(C)cc1)cn2CC(=O)N1CCCC1 | –
4 | 101% | 94.3% | 101% | 81.1% | – | – | – | O=C(NCc1cn(CC(=O)N2CCCC2)c2ccc(F)cc12)Nc1ccc(C(F)(F)F)cc1 | –
5 | 74% | 76.2% | 104% | 50.8% | 1.33 µM | 6.96 µM | 3.72 µM | COc1ccc2c(c1)c(CNC(=O)Nc1ccc(F)cc1F)cn2CC(=O)N1CCCC1 | 7.35 µM
6 | 99.7% | 99.7% | 97% | 92.5% | – | – | – | Cc1ccc(NC(=O)NCc2cn(CC(=O)N3CCCCC3)c3ccc(F)cc23)cc1 | –
7 | 92.7% | 101% | 80.1% | 80.6% | – | – | – | COc1ccc(NC(=O)NCc2cn(CC(=O)N3CCCCC3)c3ccc(F)cc23)cc1 | –
8 | 77.8% | 60.5% | 73.1% | 74.7% | – | – | – | COc1ccc2c(c1)c(CNC(=O)Nc1ccc(F)cc1F)cn2CC(=O)N1CCOCC1 | –
9 | 91.6% | 105% | 74.9% | 73.8% | – | – | – | COc1ccc2c(c1)c(CNC(=O)Nc1ccc(C(F)(F)F)cc1)cn2CC(=O)N1CCCCC1 | –
10 | 81.3% | 87.5% | 84% | 89.6% | – | – | – | COc1ccc2c(c1)c(CNC(=O)Nc1ccc(C)cc1)cn2CC(=O)N1CCOCC1 | –
11 | 91.7% | 86% | 97.2% | 54.7% | – | – | – | COc1ccc2c(c1)c(CNC(=O)Nc1ccccc1Cl)cn2CC(=O)N1CCOCC1 | –
12 | 80% | 106% | 104% | 73.5% | – | – | – | COc1ccc(NC(=O)NCc2cn(CC(=O)N3CCN(C)CC3)c3ccc(F)cc23)cc1 | –
13 | 71.8% | 103% | 79% | 82.2% | – | – | – | COc1ccc2c(c1)c(CNC(=O)Nc1ccc(C(F)(F)F)cc1)cn2CC(=O)N1CCOCC1 | –
14 | 87% | 105% | 108% | 70.1% | – | – | – | O=C(NCc1cn(CC(=O)N2CCCCC2)c2ccc(F)cc12)Nc1ccc(C(F)(F)F)cc1 | –
15 | 88.2% | 83.5% | 106% | 41.3% | 1.19 µM | 1.67 µM | 3.86 µM | O=C(NCc1cn(CC(=O)N2CCCCC2)c2ccc(F)cc12)Nc1ccc(F)cc1F | 1.73 µM
16 | 98.7% | 90.9% | 108% | 96.2% | – | – | – | COc1ccc2c(c1)c(CNC(=O)Nc1ccc(C)cc1)cn2CC(=O)N1CCN(C)CC1 | –
17 | 108% | 94.5% | 108% | 93.4% | – | – | – | COc1ccc(NC(=O)NCc2cn(CC(=O)N3CCN(C)CC3)c3ccc(OC)cc23)cc1 | –
18 | 78% | 68.6% | 81.5% | 73.8% | – | – | – | O=C(NCc1cn(CC(=O)N2CCCC2)c2ccc(F)cc12)Nc1ccccc1Cl | –
19 | 90.8% | 82.7% | 107% | 79.4% | – | – | – | COc1ccc(NC(=O)NCc2cn(CC(=O)N3CCOCC3)c3ccc(F)cc23)cc1 | –
20 | 81.8% | 90.2% | 89.6% | 73.5% | – | – | – | CN1CCN(C(=O)Cn2cc(CNC(=O)Nc3ccccc3Cl)c3cc(F)ccc32)CC1 | –

Row | Activity [1] | Activity [2] | Activity [3] | Activity [4] | IC50 [5] | IC50 (A549) | IC50 (NCI-H1975) | Structure (SMILES) | IC50 [6]
21 | 95.7% | 75.2% | 69.5% | 32.5% | 1.67 µM | 11.2 µM | 5.34 µM | O=C(NCc1cn(CC(=O)N2CCCC2)c2ccc(F)cc12)Nc1ccc(F)cc1F | 10.5 µM
22 | 114% | 111% | 83.8% | 72.4% | – | – | – | Cc1ccc(NC(=O)NCc2cn(CC(=O)N3CCOCC3)c3ccc(F)cc23)cc1 | –
23 | 81.5% | 93.7% | 105% | 74.2% | – | – | – | CN1CCN(C(=O)Cn2cc(CNC(=O)Nc3ccc(C(F)(F)F)cc3)c3cc(F)ccc32)CC1 | –
24 | 94% | 82.9% | 93.4% | 55.9% | – | – | – | COc1ccc2c(c1)c(CNC(=O)Nc1ccccc1Cl)cn2CC(=O)N1CCN(C)CC1 | –
25 | 78% | 87.4% | 83.8% | 54.5% | – | – | – | O=C(NCc1cn(CC(=O)N2CCOCC2)c2ccc(F)cc12)Nc1ccccc1Cl | –
26 | 96% | 106% | 104% | 102% | – | – | – | COc1ccc2c(c1)c(CNC(=O)Nc1ccc(C(F)(F)F)cc1)cn2CC(=O)N1CCN(C)CC1 | –
27 | 84.7% | 68.6% | 70.8% | 74.8% | – | – | – | COc1ccc2c(c1)c(CNC(=O)Nc1ccc(F)cc1F)cn2CC(=O)N1CCCCC1 | –
28 | 77.5% | 98.3% | 72.2% | 90.2% | – | – | – | O=C(NCc1cn(CC(=O)N2CCOCC2)c2ccc(F)cc12)Nc1ccc(C(F)(F)F)cc1 | –
29 | 82.3% | 92.5% | 85.7% | 83.2% | – | – | – | COc1ccc2c(c1)c(CNC(=O)Nc1ccc(C)cc1)cn2CC(=O)N1CCCCC1 | –
30 | 91.7% | 104% | 90.4% | 78.2% | – | – | – | Cc1ccc(NC(=O)NCc2cn(CC(=O)N3CCN(C)CC3)c3ccc(F)cc23)cc1 | –
31 | 90.3% | 84.2% | 75.7% | 48% | – | – | – | O=C(NCc1cn(CC(=O)N2CCCCC2)c2ccc(F)cc12)Nc1ccccc1Cl | –
32 | 101% | 91.2% | 99.5% | 95.4% | – | – | – | Cc1ccc(NC(=O)NCc2cn(CC(=O)N3CCCC3)c3ccc(F)cc23)cc1 | –
33 | 90.4% | 89.7% | 72.2% | 99.5% | – | – | – | COc1ccc2c(c1)c(CNC(=O)Nc1ccc(C(F)(F)F)cc1)cn2CC(=O)N1CCCC1 | –
34 | 113% | 88.1% | 102% | 91.5% | – | – | – | COc1ccc(NC(=O)NCc2cn(CC(=O)N3CCCC3)c3ccc(OC)cc23)cc1 | –
35 | 98.9% | 89% | 92.5% | 95.3% | – | – | – | COc1ccc(NC(=O)NCc2cn(CC(=O)N3CCOCC3)c3ccc(OC)cc23)cc1 | –
36 | 92.1% | 92.7% | 87.4% | 72.4% | – | – | – | COc1ccc(NC(=O)NCc2cn(CC(=O)N3CCCCC3)c3ccc(OC)cc23)cc1 | –
37 | 93.8% | 82.7% | 72.8% | 53.5% | 0.45 µM | 3.72 µM | 1.98 µM | O=C(NCc1cn(CC(=O)N2CCOCC2)c2ccc(F)cc12)Nc1ccc(F)cc1F | 2.82 µM
38 | 71.6% | 110% | 83.8% | 86.3% | – | – | – | COc1ccc(NC(=O)NCc2cn(CC(=O)N3CCCC3)c3ccc(F)cc23)cc1 | –
39 | 95.7% | 69.6% | 99.3% | 67.8% | – | – | – | COc1ccc2c(c1)c(CNC(=O)Nc1ccccc1Cl)cn2CC(=O)N1CCCC1 | –

From ChEMBL document CHEMBL5528029, “Design, synthesis, and biological evaluation of novel discoidin domain receptor inhibitors for the treatment of lung adenocarcinoma and pulmonary fibrosis” (Eur J Med Chem, 2024)
